The values that follow come from US7151105B2, “Inhibitors of Hepatitis C virus RNA-dependent RNA polymerase, and compositions and treatments using the same” (Agouron Pharmaceuticals, Inc., priority 2004, dated 2006).

For the test, the target named is T1, Recombinant HCV polymerase (Hepatitis C virus genotype 1b, UniProt P26663).
T1 construct: Recombinant HCV polymerase was tested for its ability to perform primer/template-directed transcription
T1 sequence (P26663 2420-3010): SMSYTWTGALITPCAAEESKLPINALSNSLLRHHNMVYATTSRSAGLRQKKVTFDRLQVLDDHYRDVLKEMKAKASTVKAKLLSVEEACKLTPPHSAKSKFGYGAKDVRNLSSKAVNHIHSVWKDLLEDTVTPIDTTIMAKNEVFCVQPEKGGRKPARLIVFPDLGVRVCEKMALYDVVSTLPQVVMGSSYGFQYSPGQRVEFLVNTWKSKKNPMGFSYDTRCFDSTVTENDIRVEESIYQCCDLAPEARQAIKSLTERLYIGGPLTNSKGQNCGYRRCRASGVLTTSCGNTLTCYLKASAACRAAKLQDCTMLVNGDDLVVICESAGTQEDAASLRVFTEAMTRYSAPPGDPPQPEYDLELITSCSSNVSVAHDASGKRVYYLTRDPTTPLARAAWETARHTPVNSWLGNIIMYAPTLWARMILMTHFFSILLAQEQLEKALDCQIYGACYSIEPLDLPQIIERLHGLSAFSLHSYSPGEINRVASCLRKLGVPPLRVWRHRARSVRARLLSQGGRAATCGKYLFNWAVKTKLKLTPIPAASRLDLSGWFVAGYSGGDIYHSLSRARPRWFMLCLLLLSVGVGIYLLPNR
The experiment in a line: biochemical. Particulars: inhibition of polymerase-directed transcription; 30 min at 30° C; 30 nM enzyme; cpm data in triplicate. The method in brief: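 Primer/template-directed RNA synthesis by 2.5 pmol HCV polymerase on poly(rC)300/biotin-dG12 with 1 μM GTP plus α-32P-GTP, in pH 7.2 Tris buffer with 10 mM MgCl2, for 30 min at 30 °C. Products were filter-captured and counted, with 1% DMSO final. IC50 was fitted from triplicate cpm; percent inhibition was reported where IC50 was impractical.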
The term IC50 denotes the concentration that inhibits the measured activity by half. In the case of `COc1cc(CO)c(F)cc1CCC1(C2CCCC2)CC(O)=C(Cc2nc3nc(C)cc(C)n3n2)C(=O)O1` (stereo not shown) [A(80), 6-Cyclopentyl-3-[(5,7-dimethyl[1,2,4]triazolo[1,5-a]pyrimidin-2-yl)methyl]-6-{2-[5-fluoro-4-(hydroxymethyl)-2-methoxyphenyl]ethyl}-4-hydroxy-5,6-dihydro-2H-pyran-2-one], the 50% inhibitory concentration (IC50) was 22 nM.

For the compound `CCOc1cnc(CC)cc1CCC1(C2CCCC2)CC(O)=C(Cc2nc3ncc(C)cn3n2)C(=O)O1` (single isomer, unassigned) [A(55), 6-Cyclopentyl-6-[2-(5-ethoxy-2-ethylpyridin-4-yl)ethyl]-4-hydroxy-3-[(6-methyl[1,2,4]triazolo[1,5-a]pyrimidin-2-yl)methyl]-5,6-dihydro-2H-pyran-2-one], the IC50 was determined as 2 nM.

Consider `COc1cc(OC)c(CCC2(C3CCCC3)CC(=O)C(Sc3nc(N)nc4nc[nH]c34)C(=O)O2)cc1Cl` (stereo not shown) [B(21), 3-[(2-Amino-7H-purin-6-yl)thio]-6-[2-(5-chloro-2,4-dimethoxyphenyl)ethyl]-6-cyclopentyldihydro-2H-pyran-2,4(3H)-dione], for which the IC50 was determined as 178 nM.

Take `Cc1cc(C)n2nc(CC3=C(O)CC(CCn4cc(Br)ccc4=O)(C4CCCC4)OC3=O)nc2n1` (stereo not shown) [B(30), 5-Bromo-1-(2-{2-cyclopentyl-5-[(5,7-dimethyl[1,2,4]triazolo[1,5-a]pyrimidin-2-yl)methyl]-4-hydroxy-6-oxo-3,6-dihydro-2H-pyran-2-yl}ethyl)pyridin-2(1H)-one]: the IC50 worked out at 1200 nM.

Consider `CCc1ccc(=O)n(CCC2(C3CCCC3)CC(O)=C(Cc3nc4nc(C)cc(C)n4n3)C(=O)O2)c1` (stereo not shown) [B(31), 1-(2-{2-Cyclopentyl-5-[(5,7-dimethyl[1,2,4]triazolo[1,5-a]pyrimidin-2-yl)methyl]-4-hydroxy-6-oxo-3,6-dihydro-2H-pyran-2-yl}ethyl)-5-ethylpyridin-2(1H)-one], for which the IC50 amounted to 180 nM.

Regarding `Cc1c(CC2=C(O)CC(CCc3ccc(C(C)(C)C#N)c(F)c3)(C3CCCC3)OC2=O)cnn1C` (stereo not shown) [A(94), 2-[4-(2-{2-Cyclopentyl-5-[(1,5-dimethyl-1H-pyrazol-4-yl)methyl]-4-hydroxy-6-oxo-3,6dihydro-2H-pyran-2-yl}ethyl)-2-fluorophenyl]-2-methylpropanenitrile], the IC50 turned out to be 27 nM.

`CCc1cc(CCC2(C3CCCC3)CC(=O)CC(=O)O2)ccc1OCCNC(=O)OC(C)(C)C` (stereo not shown) [A(68), tert-Butyl 2-{4-[2-(2-cyclopentyl-4,6-dioxotetrahydro-2H-pyran-2-yl)ethyl]-2-ethylphenoxy}ethylcarbamate]: the IC50 is 12000 nM.

Consider `COC(=O)c1ccc(CCC2(C3CCCC3)CC(=O)CC(=O)O2)cc1Cl` (stereo not shown) [B(7)], for which the IC50 worked out at 7000 nM.

With `CCc1cc(CCC2(C3CCCC3)CC(O)=C(Cc3nc4nc(C)cc(C)n4n3)C(=O)O2)ccc1CNC(C)=O` (stereo not shown) [A(131), N-[4-(2-{2-cyclopentyl-5-[(5,7-dimethyl[1,2,4]triazolo[1,5-a]pyrimidin-2-yl)methyl]-4-hydroxy-6-oxo-3,6-dihydro-2H-pyran-2-yl}ethyl)-2-ethylbenzyl]acetamide], the IC50 was 2 nM.

With `CCc1cc(CCC2(C3CCCC3)CC(O)=C(Cc3nc4nc(C)cc(C)n4n3)C(=O)O2)c2c(c1O)CCO2` (single isomer, unassigned; enantiomer 2) [A(13), Enantiomer 2 of 6-Cyclopentyl-3-[(5,7-dimethyl[1,2,4]triazolo[1,5-a]pyrimidin-2-yl)methyl]-6-[2-(5-ethyl-4-hydroxy-2,3-dihydro-1-benzofuran-7-yl)ethyl]-4-hydroxy-5,6dihydro-2H-pyran-2-one], the concentration for half-maximal inhibition (IC50) was 1 nM.

Regarding `CCc1cc(CCC2(C3CCCC3)CC(O)=C(Cc3nc4ncc(C)cn4n3)C(=O)O2)ccc1-c1ncco1` (stereo not shown) [A(137), 6-Cyclopentyl-6-{2-[3-ethyl-4-(1,3-oxazol-2-yl)phenyl]ethyl}-4-hydroxy-2-[(6-methyl[1,2,4]triazolo[1,5-a]pyrimidin-2-yl)methyl]-5,6-dihydro-2H-pyran-2-one], the 50% inhibitory concentration (IC50) amounted to 300 nM.

On to `CCc1cc(CCC2(C3CCCC3)CC(O)=C(Cc3nc4nc(C)cc(C)n4n3)C(=O)O2)ccc1NS(C)(=O)=O` (stereo not shown) [A(104), N-[4-(2-{2-cyclopentyl-5-[(5,7-dimethyl[1,2,4]triazolo[1,5-a]pyrimidin-2-yl)methyl]-4-hydroxy-6-oxo-3,6dihydro-2H-pyran-2-yl}ethyl)-2-ethylphenyl]methanesulfonamide], for which the IC50 was 6 nM.

`CCCOc1cc(O)c(CC)cc1CCC1(C2CCCC2)CC(O)=C(Cc2nc3nc(C)cc(C)n3n2)C(=O)O1` (stereo not shown) [A(1), 6Cyclopentyl-3[(5,7-dimethyl[1,2,4]triazolo[1,5-a]pyrimidin-2-yl)methyl]-6-[2-(5-ethyl-4-hydroxy-2-propoxyphenyl)ethyl]-4-hydroxy-5,6dihydro-2H-pyran-2-one]: the concentration for half-maximal inhibition (IC50) was determined as 3 nM.

Turning to `Cc1nn(C)c(Cl)c1CC1=C(O)CC(CCc2ccc(C(C)(C)C#N)c(F)c2)(C2CCCC2)OC1=O` (stereo not shown) [A(96), 2-[4-(2-{5-[(5-Chloro-1,3-dimethyl-1H-pyrazol-4-yl)methyl]-2-cyclopentyl-4-hydroxy-6-oxo-3,6-dihydro-2H-pyran-2-yl}ethyl)-2-fluorophenyl]-2-methylpropanenitrile], the IC50 worked out at 6 nM.

As for `CCc1cc(CCC2(C3CCCC3)CC(O)=C(Cc3nc4ncccn4n3)C(=O)O2)ccc1NS(C)(=O)=O` (stereo not shown) [A(107), N-(4-{2-[2-cyclopentyl-4-hydroxy-6-oxo-5-([1,2,4]triazolo[1,5-a]pyrimidin-2-ylmethyl)-3,6dihydro-2H-pyran-2-yl]ethyl}-2-ethylphenyl)methanesulfonamide], the concentration for half-maximal inhibition (IC50) is 6 nM.

Take `CCCOc1cnc(CC)cc1CCC1(C2CCCC2)CC(O)=C(Cc2nc3ncc(C)cn3n2)C(=O)O1` (stereo not shown) [A(46), 6-Cyclopentyl-6-[2-(2-ethyl-5-propoxypyridin-4-yl)ethyl]-4-hydroxy-3-[(6-methyl[1,2,4]triazolo[1,5-a]pyrimidin-2-yl)methyl]-5,6-dihydro-2H-pyran-2-one]: the IC50 came to 6 nM.

With `CCOc1cc(O)c(CC)cc1CCC1(C2CCCC2)CC(O)=C(Cc2nc3nc(C)cc(C)n3n2)C(=O)O1` (stereo not shown) [A(22), 6-Cyclopentyl-3-[(5,7-dimethyl[1,2,4]triazolo[1,5-a]pyrimidin-2-yl)methyl]-6-[2-(2-ethoxy-5-ethyl-4-hydroxyphenyl)ethyl]-4-hydroxy-5,6-dihydro-2H-pyran-2-one], the concentration for half-maximal inhibition (IC50) was found to be 4 nM.

As to `CCc1cc(CCC2(C3CCCC3)CC(O)=C(Cc3nc4ncc(C)cn4n3)C(=O)O2)ccc1CC#N` (stereo not shown) [A(103), [4-(2-{2-cyclopentyl-4-hydroxy-5-[(6-methyl[1,2,4]triazolo[1,5-a]pyrimidin-2-yl)methyl]-6-oxo-3,6-dihydro-2H-pyran-2-yl}ethyl)-2-ethylphenyl]acetonitrile], the IC50 amounted to 3 nM.

In the case of `CCc1ccc(CCCOC)c(CCC2(C3CCCC3)CC(O)=C(Cc3nc4nc(C)cc(C)n4n3)C(=O)O2)c1` (stereo not shown) [A(19), 6Cyclopentyl-3-[(5,7-dimethyl[1,2,4]triazolo[1,5-a]pyrimidin-2-yl)methyl]-6-{2-[5-ethyl-2-(3-methoxypropyl)phenyl]ethyl}-4-hydroxy-5,6dihydro-2H-pyran-2-one], the half-maximal inhibitory concentration (IC50) worked out at 12 nM.
